Measured values published in patent publication US20240083861A1, “HSD17B13 INHIBITORS AND USES THEREOF” (FL2022-001, Inc., priority 2020, published 2024).
pIC50: −log10 of the molar value.

Molecular target: T1, Recombinant human HSD17B13 enzyme (Homo sapiens, UniProt Q7Z5P4)
T1 sequence (Q7Z5P4 20-300): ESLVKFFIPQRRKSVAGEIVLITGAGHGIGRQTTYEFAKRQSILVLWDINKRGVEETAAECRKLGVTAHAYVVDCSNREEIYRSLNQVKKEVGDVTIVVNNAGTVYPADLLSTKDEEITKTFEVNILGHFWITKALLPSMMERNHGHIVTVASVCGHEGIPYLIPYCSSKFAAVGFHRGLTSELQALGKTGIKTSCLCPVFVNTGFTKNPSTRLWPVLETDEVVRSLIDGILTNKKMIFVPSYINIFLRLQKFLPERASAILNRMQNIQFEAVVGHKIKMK
Experiment: HSD17b13 NAD(P)H-Glo biochemical assay
Details: 50 uM estradiol, 1 mM NAD+, NAD(P)H-Glo luminescence; read-out: HSD17β13 IC50
Method in brief: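 Luminescent NAD(P)H-Glo read-out, taken after 1 hour at RT, measured cofactor reduction. Substrate and cofactor were estradiol at 50 uM and NAD+ at 1 mM final, reacted with the recombinant human enzyme for 3 hours at 37° C in 20 mM Tris pH7.4, 0.002% Tween-20, 0.02% BSA. Compound was pre-incubated with enzyme for 20 minutes at RT.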

pIC50 | SMILES
> 7.00 | Cn1nc(-c2cc(C(F)(F)F)c(F)c(O)c2F)c2cnc(N3CCOCC3C3CC3)cc21 (centres unmarked) [Compound 9.38, 3-(6-(3-Cyclopropylmorpholino)-1-methyl-1H-pyrazolo[4,3-c]pyridin-3-yl)-2,6-difluoro-5-(trifluoromethyl)phenol]
> 7.00 | Cn1nc(-c2cc(C(F)(F)F)c(F)c(O)c2F)c2cnc(N3CC4CCC3CC4)cc21 [Compound 9.42, 3-(6-(2-Azabicyclo[2.2.2]octan-2-yl)-1-methyl-1H-pyrazolo[4,3-c]pyridin-3-yl)-2,6-difluoro-5-(trifluoromethyl)phenol]
> 7.00 | CCC1COCCN1c1cc2c(cn1)c(-c1cc(C(F)(F)F)c(F)c(O)c1F)nn2C (centres unmarked) [Compound 9.45, 3-(6-(3-Ethylmorpholino)-1-methyl-1H-pyrazolo[4,3-c]pyridin-3-yl)-2,6-difluoro-5-(trifluoromethyl)phenol]
> 7.00 | CCN(c1cc2c(cn1)c(-c1cc(C(F)(F)F)c(F)c(O)c1F)nn2C)C1CCC1 [Compound 9.46, 3-(6-(Cyclobutyl(ethyl)amino)-1-methyl-1H-pyrazolo[4,3-c]pyridin-3-yl)-2,6-difluoro-5-(trifluoromethyl)phenol]
> 7.00 | COC1CCN(c2cc3c(cn2)c(-c2cc(C(F)(F)F)c(F)c(O)c2F)nn3C)CC1 [Compound 9.47, 2,6-Difluoro-3-(6-(4-methoxypiperidin-1-yl)-1-methyl-1H-pyrazolo[4,3-c]pyridin-3-yl)-5-(trifluoromethyl)phenol]
> 7.00 | Cn1nc(-c2cc(C(F)(F)F)c(F)c(O)c2F)c2cnc(N3CCOC4(CC4)C3)cc21 [Compound 9.48, 2,6-Difluoro-3-(1-methyl-6-(4-oxa-7-azaspiro[2.5]octan-7-yl)-1H-pyrazolo[4,3-c]pyridin-3-yl)-5-(trifluoromethyl)phenol]
> 7.00 | Cn1nc(-c2cc(C(F)(F)F)c(F)c(O)c2F)c2cnc(N3CCC(O)CC34CC4)cc21 (centres unmarked) [Compound 9.49, 4-(3-(2,4-Difluoro-3-hydroxy-5-(trifluoromethyl)phenyl)-1-methyl-1H-pyrazolo[4,3-c]pyridin-6-yl)-4-azaspiro [2.5]octan-7-ol]
> 7.00 | CC(C)C1COCCN1c1cc2c(cn1)c(-c1cc(C(F)(F)F)c(F)c(O)c1F)nn2C (centres unmarked) [Compound 9.52, 2,6-Difluoro-3-(6-(3-isopropylmorpholino)-1-methyl-1H-pyrazolo[4,3-c]pyridin-3-yl)-5-(trifluoromethyl)phenol]
6.00 to 7.00 | Cn1nc(-c2cc(C(F)(F)F)c(F)c(O)c2F)c2cnc(N3CCNC4(CC4)C3=O)cc21 [Compound 9.53, 7-(3-(2,4-Difluoro-3-hydroxy-5-(trifluoromethyl)phenyl)-1-methyl-1H-pyrazolo[4,3-c]pyridin-6-yl)-4,7-diazaspiro[2.5]octan-8-one]
> 7.00 | Cn1nc(-c2cc(C(F)(F)F)c(F)c(O)c2F)c2cnc(N3CCOCC3)cc21 [Compound 9.57, 2,6-Difluoro-3-(1-methyl-6-morpholino-1H-pyrazolo[4,3-c]pyridin-3-yl)-5-(trifluoromethyl)phenol]
> 7.00 | Cn1nc(-c2cc(C(F)(F)F)c(F)c(O)c2F)c2cnc(N3CCCOCC3)cc21 [Compound 9.58, 2,6-Difluoro-3-(1-methyl-6-(1,4-oxazepan-4-yl)-1H-pyrazolo[4,3-c]pyridin-3-yl)-5-(trifluoromethyl)phenol]
> 7.00 | COCC1COCCN1c1cc2c(cn1)c(-c1cc(C(F)(F)F)c(F)c(O)c1F)nn2C (centres unmarked) [Compound 9.60, 2,6-Difluoro-3-(6-(3-(methoxymethyl)morpholino)-1-methyl-1H-pyrazolo[4,3-c]pyridin-3-yl)-5-(trifluoromethyl)phenol]

Continued, molecule first:

SMILES | pIC50
CN(c1ncc2c(-c3cc(C(F)(F)F)c(F)c(O)c3F)nn(C)c2n1)C1CCOCC1 [Compound 9.39, 2,6-Difluoro-3-(1-methyl-6-(methyl(tetrahydro-2H-pyran-4-yl)amino)-1H-pyrazolo[3,4-d]pyrimidin-3-yl)-5-(trifluoromethyl)phenol] | > 7.00
CN(c1ccc2c(-c3cc(C(F)(F)F)c(F)c(O)c3F)nn(C)c2n1)C1CCOCC1 [Compound 9.40, 2,6-Difluoro-3-(1-methyl-6-(methyl(tetrahydro-2H-pyran-4-yl)amino)-1H-pyrazolo[3,4-b]pyridin-3-yl)-5-(trifluoromethyl)phenol] | > 7.00
Cn1nc(-c2cc(C(F)(F)F)c(F)c(O)c2F)c2ccc(N3CCOCC34CCC4)nc21 [Compound 9.41, 2,6-Difluoro-3-(1-methyl-6-(8-oxa-5-azaspiro[3.5]nonan-5-yl)-1H-pyrazolo[3,4-b]pyridin-3-yl)-5-(trifluoromethyl)phenol] | > 7.00
Cn1nc(-c2cc(C(F)(F)F)c(F)c(O)c2F)c2cnc(N3CCNC(=O)C34CC4)cc21 [Compound 9.43, 4-(3-(2,4-Difluoro-3-hydroxy-5-(trifluoromethyl)phenyl)-1-methyl-1H-pyrazolo[4,3-c]pyridin-6-yl)-4,7-diazaspiro[2.5]octan-8-one] | > 7.00
CN(c1cc2c(cn1)c(-c1cc(C(F)(F)F)c(F)c(O)c1F)nn2C)C1CCCOC1 (centres unmarked) [Compound 9.44, 2,6-Difluoro-3-(1-methyl-6-(methyl(tetrahydro-2H-pyran-3-yl)amino)-1H-pyrazolo[4,3-c]pyridin-3-yl)-5-(trifluoromethyl)phenol] | > 7.00
COCCN(c1cc2c(cn1)c(-c1cc(C(F)(F)F)c(F)c(O)c1F)nn2C)C1CCOCC1 [Compound 9.50, 2,6-Difluoro-3-(6-((2-methoxyethyl)(tetrahydro-2H-pyran-4-yl)amino)-1-methyl-1H-pyrazolo[4,3-c]pyridin-3-yl)-5-(trifluoromethyl)phenol] | > 7.00
Cn1nc(-c2cc(C(F)(F)F)c(F)c(O)c2F)c2cnc(N(CC3CC3)C3CCC3)cc21 [Compound 9.51, 3-(6-(Cyclobutyl(cyclopropylmethyl)amino)-1-methyl-1H-pyrazolo[4,3-c]pyridin-3-yl)-2,6-difluoro-5-(trifluoromethyl)phenol] | > 7.00
Oc1c(F)c(-c2nn(C3CCOCC3)c3cc(N4CCOCC45CC5)ncc23)cc(C(F)(F)F)c1F [Compound 9.54, 3-(6-(7-Oxa-4-azaspiro[2.5]octan-4-yl)-1-(tetrahydro-2H-pyran-4-yl)-1H-pyrazolo[4,3-c]pyridin-3-yl)-2,6-difluoro-5-(trifluoromethyl)phenol] | > 7.00
Oc1c(F)c(-c2nn(C3COC3)c3cc(N4CCOCC45CC5)ncc23)cc(C(F)(F)F)c1F [Compound 9.55, 2,6-Difluoro-3-(1-(oxetan-3-yl)-6-(7-oxa-4-azaspiro [2.5]octan-4-yl)-1H-pyrazolo[4,3-c]pyridin-3-yl)-5-(trifluoromethyl)phenol] | > 7.00
Oc1c(F)c(-c2nn(C3CCC3)c3cc(N4CCOCC45CC5)ncc23)cc(C(F)(F)F)c1F [Compound 9.56, 3-(1-Cyclobutyl-6-(7-oxa-4-azaspiro[2.5]octan-4-yl)-1H-pyrazolo[4,3-c]pyridin-3-yl)-2,6-difluoro-5-(trifluoromethyl)phenol] | > 7.00
Cn1nc(-c2cc(C(F)(F)F)c(F)c(O)c2F)c2cnc(N3CCCCC34CCC4)cc21 [Compound 9.59, 2,6-Difluoro-3-(1-methyl-6-(5-azaspiro[3.5]nonan-5-yl)-1H-pyrazolo[4,3-c]pyridin-3-yl)-5-(trifluoromethyl)phenol] | > 7.00
